From patent US9447100B2, “Substituted pyrazolo[1,5-A] pyrimidines as calcium receptor modulating agents” (Takeda Pharmaceutical Company Limited, priority 2002, dated 2016)
Structures can show the parent of a compound that is named as a salt.

Structure (SMILES)	melting point [°C]
O=C(O)c1cnn2c1NC(c1cccc(Cl)c1)CC2C(F)(F)F (stereo not drawn) [Example 33, 5-(3-chlorophenyl)-7-(trifluoromethyl)-4,5,6,7-tetrahydropyrazolo[1,5-a]pyrimidine-3-carboxylic acid]	194 to 195
CCC(CC)(NC(=O)c1cnn2c1NC(c1ccccc1)CC2(C)C)c1cccc(F)c1 (stereo not drawn) [Example 615, N-(1-ethyl-1-(3-fluorophenyl)propyl)-7,7-dimethyl-5-phenyl-4,5,6,7-tetrahydropyrazolo[1,5-a]pyrimidine-3-carboxamide]	180 to 181
O=C(c1cnn2c1NC(c1ccccc1)CC2C(F)(F)F)N1CCN(C(c2ccccc2)c2ccccc2)CC1 (stereo not drawn) [Example 274, 3-((4-benzhydryl-1-piperazinyl)carbonyl)-5-phenyl-7-(trifluoromethyl)-4,5,6,7-tetrahydropyrazolo[1,5-a]pyrimidine]	181 to 182
COc1ccccc1C1CC(C(F)(F)F)n2ncc(C(=O)O)c2N1 (stereo not drawn) [Example 30, 5-(2-methoxyphenyl)-7-(trifluoromethyl)-4,5,6,7-tetrahydropyrazolo[1,5-a]pyrimidine-3-carboxylic acid]	189 to 190
CCC(CC)(NC(=O)c1cnn2c1NC(c1ccccc1)CC2C(F)(F)F)c1ccccc1 (stereo not drawn) [Example 396, N-(1-ethyl-1-phenylpropyl)-5-phenyl-7-(trifluoromethyl)-4,5,6,7-tetrahydropyrazolo[1,5-a]pyrimidine-3-carboxamide]	165 to 166
CCC(CC)(NC(=O)c1cnn2c1NC(c1ccccc1)CC2(C)C)c1ccc(CCC(=O)O)cc1 (stereo not drawn) [Example 749, 3-(4-(1-(((7,7-dimethyl-5-phenyl-4,5,6,7-tetrahydropyrazolo[1,5-a]pyrimidin-3-yl)carbonyl)amino)-1-ethyl-propyl)phenyl)propanoic acid]	240 to 241
O=C(NC12CC3CC(CC(C3)C1)C2)c1cnn2c1NC(c1ccccc1Cl)CC2C(F)(F)F (stereo not drawn) [Example 281, N-(1-adamantyl)-5-(2-chlorophenyl)-7-(trifluoromethyl)-4,5,6,7-tetrahydropyrazolo[1,5-a]pyrimidine-3-carboxamide]	256 to 257
Cc1nn2c(c1C(=O)NC13CC4CC(CC(C4)C1)C3)NC(c1ccccc1)CC2C(F)(F)F (stereo not drawn) [Example 42]	162 to 163
CCC(NC(=O)c1cnn2c1NC(c1ccccc1)CC2C(F)(F)F)c1ccccc1C (stereo not drawn) [Example 399, N-(1-(2-methylphenyl)propyl)-5-phenyl-7-(trifluoromethyl)-4,5,6,7-tetrahydropyrazolo[1,5-a]pyrimidine-3-carboxamide]	225 to 226
CCC(CC)(NC(=O)c1cnn2c1NC(c1ccccc1)CC2(C)C)c1ccc(Cl)cc1Cl (stereo not drawn) [Example 680, N-(1-(2,4-dichlorophenyl)-1-ethylpropyl)-7,7-dimethyl-5-phenyl-4,5,6,7-tetrahydropyrazolo[1,5-a]pyrimidine-3-carboxamide]	220 to 222
O=C(NC12CC3CC(CC(C3)C1)C2)c1cnn2c1NC(c1ccccc1)CC21CCCCC1 (stereo not drawn)	274 to 275
CCC(C)(CC)NC(=O)c1cnn2c1NC(c1ccccc1)CC2(C)C (stereo not drawn) [Example 618, N-(1-ethyl-1-methylpropyl)-7,7-dimethyl-5-phenyl-4,5,6,7-tetrahydropyrazolo[1,5-a]pyrimidine-3-carboxamide]	88 to 89
CCC(CC)(NC(=O)c1cnn2c1NC(c1ccccc1)CC2(C)C)c1ccc(OC(C)=O)cc1 (stereo not drawn) [Example 728, 4-(1-(((7,7-dimethyl-5-phenyl-4,5,6,7-tetrahydropyrazolo[1,5-a]pyrimidin-3-yl)carbonyl)amino)-1-ethylpropyl)phenyl acetate]	171 to 172
O=C(c1cnn2c1NC(c1ccccc1)CC2C(F)(F)F)N1CCc2nn(-c3ccc(Cl)cc3)cc2C1 (stereo not drawn) [Example 275, 2-(4-chlorophenyl)-5-((5-phenyl-7-(trifluoromethyl)-4,5,6,7-tetrahydropyrazolo[1,5-a]pyrimidin-3-yl)carbonyl)-4,5,6,7-tetrahydro-2H-pyrazolo[4,3-c]pyridine]	183 to 184
O=C(NC1C2CC3CC(C2)CC1C3)c1cnn2c1NC(c1ccc3ccccc3c1)CC2C(F)(F)F (stereo not drawn) [Example 90, N-(2-adamantyl)-5-(2-naphthyl)-7-(trifluoromethyl)-4,5,6,7-tetrahydropyrazolo[1,5-a]pyrimidine-3-carboxamide]	280 to 282
O=C(NC1(C(=O)N2CCOCC2)CCCCC1)c1cnn2c1N[C@H](c1ccccc1)C[C@@H]2C(F)(F)F [Example 370]	290 to 291
CC1(C)CC(c2ccccc2)Nc2c(C(=O)N(Cc3ccccc3)Cc3ccccc3)cnn21 (stereo not drawn) [Example 408, N,N-dibenzyl-7,7-dimethyl-5-phenyl-4,5,6,7-tetrahydropyrazolo[1,5-a]pyrimidine-3-carboxamide]	206 to 207
O=C(O)c1cnn2c1NC(c1ccccc1)C1CCCCC12 (stereo not drawn) [Example 39, 5-phenyl-4,5,5a,6,7,8,9,9a-octahydropyrazolo[1,5-a]quinazoline-3-carboxylic acid]	158 to 160

Now from value to molecule:

melting point [°C]	Structure (SMILES)
170 to 171	CCC(CC)(NC(=O)c1cnn2c1NC(c1ccccc1)CC2(C)C)c1ccc(OCCCC(=O)O)cc1 (stereo not drawn) [Example 771, 4-(4-(1-(((7,7-dimethyl-5-phenyl-4,5,6,7-tetrahydropyrazolo[1,5-a]pyrimidin-3-yl)carbonyl)amino)-1-ethyl-propyl)phenoxy)butanoic acid]
116 to 117	CNC(=O)c1cnn2c1NC(c1ccccc1)CC2(C)C (stereo not drawn) [Example 768, N,7,7-trimethyl-5-phenyl-4,5,6,7-tetrahydropyrazolo[1,5-a]pyrimidine-3-carboxamide]
193 to 194	Cc1ccc(C(C)(C)NC(=O)c2c(C)nn3c2NC(c2ccccc2)CC3(C)C)cc1 (stereo not drawn) (as salt: HCl) [Example 794, 2,7,7-trimethyl-N-(1-methyl-1-(4-methylphenyl)ethyl)-5-phenyl-4,5,6,7-tetrahydropyrazolo[1,5-a]pyrimidine-3-carboxamide]
167 to 168	CC1(C)CC(c2ccccc2Cl)Nc2c(C(=O)O)cnn21 (stereo not drawn) [Example 940, 5-(2-chlorophenyl)-7,7-dimethyl-4,5,6,7-tetrahydropyrazolo[1,5-a]pyrimidine-3-carboxylic acid]
234 to 236	CCC(CC)(NC(=O)c1c(C)nn2c1N[C@@H](c1ccccc1)CC2(C)C)c1ccc(C(=O)O)cc1 [Example 1076, (5R)-4-(1-ethyl-1-(((-2,7,7-trimethyl-5-phenyl-4,5,6,7-tetrahydropyrazolo[1,5-a]pyrimidin-3-yl)carbonyl)amino)propyl) benzoic acid]
150 to 151	Cc1nn2c(c1C(=O)O)NC(c1ccccc1F)CC2(C)C (single isomer, unassigned; (+)) [Example 1024, (+)-5-(2-fluorophenyl)-2,7,7-trimethyl-4,5,6,7-tetrahydropyrazolo[1,5-a]pyrimidine-3-carboxylic acid]
193 to 194	CCC(CC)(NC(=O)c1c(C)nn2c1N[C@@H](c1ccccc1)CC2(C)C)c1ccc(Cl)cc1 (as salt: HCl) [Example 1043, (5R)-N-(1-(4-chlorophenyl)-1-ethylpropyl)-2,7,7-trimethyl-5-phenyl-4,5,6,7-tetrahydropyrazolo[1,5-a]pyrimidine-3-carboxamide]
138 to 139	CCc1ccc(C(CC)(CC)NC(=O)c2c(C)nn3c2N[C@@H](c2ccccc2F)CC3(C)C)cc1 (as salt: HCl) [Example 1089, (5R)-N-(1-ethyl-1-(4-ethylphenyl)propyl)-5-(2-fluorophenyl)-2,7,7-trimethyl-4,5,6,7-tetrahydropyrazolo[1,5-a]pyrimidine-3-carboxamide]
101 to 102	CCOC(=O)CCCOc1ccc(C(CC)(CC)NC(=O)c2cnn3c2NC(c2ccccc2)CC3(C)C)cc1 (stereo not drawn) [Example 770, ethyl 4-(4-(1-(((7,7-dimethyl-5-phenyl-4,5,6,7-tetrahydropyrazolo[1,5-a]pyrimidin-3-yl)carbonyl)amino)-1-ethyl-propyl)phenoxy)butanoate]
140 to 141	CCC(CC)(NC(=O)c1c(C)nn2c1NC(c1ccccc1)CC2(C)C)c1ccc(N(C)C)cc1 (stereo not drawn) (as salt: HCl) [Example 821, N-(1-(4-(dimethylamino)phenyl)-1-ethylpropyl)-2,7,7-trimethyl-5-phenyl-4,5,6,7-tetrahydropyrazolo[1,5-a]pyrimidine-3-carboxamide]
196 to 197	COc1ccc(C2CC(C)(C)n3ncc(C(=O)O)c3N2)cc1 (stereo not drawn) [Example 942, 5-(4-methoxyphenyl)-7,7-dimethyl-4,5,6,7-tetrahydropyrazolo[1,5-a]pyrimidine-3-carboxylic acid]
166 to 169	CCC(CC)(NC(=O)c1c(C)nn2c1NC(c1ccc(F)cc1)CC2(C)C)c1ccc(C)cc1 (stereo not drawn) (as salt: HCl) [Example 971, N-(1-ethyl-1-(4-methylphenyl)propyl)-5-(4-fluorophenyl)-2,7,7-trimethyl-4,5,6,7-tetrahydropyrazolo[1,5-a]pyrimidine-3-carboxamide]
194 to 195	CCC(CC)(NC(=O)c1c(C)nn2c1N[C@@H](c1ccccc1)CC2(C)C)c1cc(C)n(-c2ccccc2)n1 (as salt: HCl) [Example 1062, (5R)-N-(1-ethyl-1-(5-methyl-1-phenyl-1H-pyrazol-3-yl)propyl)-2,7,7-trimethyl-5-phenyl-4,5,6,7-tetrahydropyrazolo[1,5-a]pyrimidine-3-carboxamide]
152 to 153	CCC(CC)(NC(=O)c1c(C)nn2c1NC(c1ccccc1F)CC2(C)C)c1ccc(C)cc1 (stereo not drawn) (as salt: HCl) [Example 831, N-(1-ethyl-1-(4-methylphenyl)propyl)-5-(2-fluorophenyl)-2,7,7-trimethyl-4,5,6,7-tetrahydropyrazolo[1,5-a]pyrimidine-3-carboxamide]
150 to 151	CCC(CC)(NC(=O)c1cnn2c1NC(c1ccc(C)cc1C)CC2(C)C)c1ccc(C)cc1 (stereo not drawn) (as salt: HCl) [Example 970, 5-(2,4-dimethylphenyl)-N-(1-ethyl-1-(4-methylphenyl)propyl)-7,7-dimethyl-4,5,6,7-tetrahydropyrazolo[1,5-a]pyrimidine-3-carboxamide]
